From patent US9914731B2, “Pyrazolo[1,5-a]pyridine derivatives and methods of their use” (Ignyta, Inc., priority 2013, dated 2018)

How the values were obtained:
[1] = target: recombinant human baculovirus-expressed AXL (Homo sapiens (Human), UniProt P30530); experiment: AXL kinase assay (HTRF KinEASE); assay type: biochemical; conditions: average of two or more determinations
[2] = target: recombinant human baculovirus-expressed cMET (Homo sapiens (Human), UniProt P08581); experiment: c-MET kinase assay (HTRF KinEASE); assay type: biochemical; conditions: average of two or more determinations; read-out: c-MET IC50

Compound	IC50 [1]	IC50 [2]
1-Ethyl-3-(4-fluoro-phenyl)-2,4-dioxo-1,2,3,4-tetrahydro-pyrimidine-5-carboxylic acid {3-fluoro-4-[6-(1H-pyrazol-3-yl)-pyrazolo[1,5-a]pyridin-4-yloxy]-phenyl}-amide [Example 40]	< 0.01 µM	< 0.01 µM
O=C(Nc1ccc(Oc2cc(-c3cn[nH]c3)cn3nccc23)c(F)c1)c1cccn(-c2ccc(F)cc2)c1=O [Example 42, 1-(4-Fluoro-phenyl)-2-oxo-1,2-dihydro-pyridine-3-carboxylic acid {3-fluoro-4-[6-(1H-pyrazol-4-yl)-pyrazolo[1,5-a]pyridine-4-yloxy]-phenyl}-amide]	< 0.01 µM	< 0.01 µM
Cc1[nH]ncc1-c1cc(Oc2ccc(NC(=O)c3cccn(-c4ccc(F)cc4)c3=O)cc2F)c2ccnn2c1 [Example 44, 1-(4-Fluoro-phenyl)-2-oxo-1,2-dihydro-pyridine-3-carboxylic acid{3-fluoro-4-[6-(5-methyl-1H-pyrazol-4-yl)-pyrazolo[1,5-a]pyridin-4-yloxy]-phenyl}-amide]	< 0.01 µM	< 0.01 µM
CC(C)n1cc(C(=O)Nc2ccc(Oc3cc(-c4cnccn4)cn4nccc34)c(F)c2)c(=O)n(-c2ccc(F)cc2)c1=O [Example 135, 3-(4-Fluoro-phenyl)-1-isopropyl-2,4-dioxo-1,2,3,4-tetrahydro-pyrimidine-5-carboxylic acid[3-fluoro-4-(6-pyrazin-2-yl-pyrazolo[1,5-a]pyridin-4-yloxy)-phenyl]-amide]		0.01 to 0.1 µM
CCn1cc(C(=O)Nc2ccc(Oc3cc(-c4cccc(C)n4)cn4nccc34)c(F)c2)c(=O)n(-c2ccc(F)cc2)c1=O [Example 136, 1-Ethyl-3-(4-fluoro-phenyl)-2,4-dioxo-1,2,3,4-tetrahydro-pyrimidine-5-carboxylic acid{3-fluoro-4-[6-(6-methyl-pyridin-2-yl)-pyrazolo[1,5-a]pyridin-4-yloxy]-phenyl}-amide]		0.01 to 0.1 µM
Cc1cccc(-c2cc(Oc3ccc(NC(=O)c4cn(C(C)C)c(=O)n(-c5ccc(F)cc5)c4=O)cc3F)c3ccnn3c2)n1 [Example 137, 3-(4-Fluoro-phenyl)-1-isopropyl-2,4-dioxo-1,2,3,4-tetrahydro-pyrimidine-5-carboxylic acid{3-fluoro-4-[6-(6-methyl-pyridin-2-yl)-pyrazolo[1,5-a]pyridin-4-yloxy]-phenyl}-amide]		0.01 to 0.1 µM
CC(C)n1cc(C(=O)Nc2ccc(Oc3cc(C(=O)N(C)C)cn4nccc34)c(F)c2)c(=O)n(-c2ccc(F)cc2)c1=O [Example 138, 4-(2-Fluoro-4-{[3-(4-fluoro-phenyl)-1-isopropyl-2,4-dioxo-1,2,3,4-tetrahydro-pyrimidine-5-carbonyl]-amino}-phenoxy)-pyrazolo[1,5-a]pyridine-6-carboxylic acid dimethylamide]		< 0.01 µM
CCn1cc(C(=O)Nc2ccc(Oc3cc(C(=O)N(C)C)cn4nccc34)c(F)c2)c(=O)n(-c2ccc(F)cc2)c1=O [Example 139, 4-(4-{[1-Ethyl-3-(4-fluoro-phenyl)-2,4-dioxo-1,2,3,4-tetrahydro-pyrimidine-5-carbonyl]-amino}-2-fluoro-phenoxy)-pyrazolo[1,5-a]pyridine-6-carboxylic acid dimethylamide]		< 0.01 µM
CCn1cc(C(=O)Nc2ccc(Oc3cc(NS(C)(=O)=O)cn4nccc34)c(F)c2)c(=O)n(-c2ccc(F)cc2)c1=O [Example 140, 1-Ethyl-3-(4-fluoro-phenyl)-2,4-dioxo-1,2,3,4-tetrahydro-pyrimidine-5-carboxylic acid[3-fluoro-4-(6-methanesulfonylamino-pyrazolo[1,5-a]pyridin-4-yloxy)-phenyl]-amide]		0.01 to 0.1 µM
CC(C)n1cc(C(=O)Nc2ccc(Oc3cc(NS(C)(=O)=O)cn4nccc34)c(F)c2)c(=O)n(-c2ccc(F)cc2)c1=O [Example 141, 3-(4-Fluoro-phenyl)-1-isopropyl-2,4-dioxo-1,2,3,4-tetrahydro-pyrimidine-5-carboxylic acid[3-fluoro-4-(6-methanesulfonylamino-pyrazolo[1,5-a]pyridin-4-yloxy)-phenyl]-amide]		0.01 to 0.1 µM
CC(=O)Nc1cc(Oc2ccc(NC(=O)c3cn(C(C)C)c(=O)n(-c4ccc(F)cc4)c3=O)cc2F)c2ccnn2c1 [Example 143, 3-(4-Fluoro-phenyl)-1-isopropyl-2,4-dioxo-1,2,3,4-tetrahydro-pyrimidine-5-carboxylic acid[4-(6-acetylamino-pyrazolo[1,5-a]pyridin-4-yloxy)-3-fluoro-phenyl]-amide]		< 0.01 µM
CCn1cc(C(=O)Nc2ccc(Oc3cc(NC(=O)N(C)C)cn4nccc34)c(F)c2)c(=O)n(-c2ccc(F)cc2)c1=O [Example 146, 1-Ethyl-3-(4-fluoro-phenyl)-2,4-dioxo-1,2,3,4-tetrahydro-pyrimidine-5-carboxylic acid {4-[6-(3,3-dimethyl-urea)-pyrazolo[1,5-a]pyridin-4-yloxy]-3-fluoro-phenyl}-amide]		< 0.01 µM
CC(C)n1cc(C(=O)Nc2ccc(Oc3cc(NC(=O)N4CCN(C)CC4)cn4nccc34)c(F)c2)c(=O)n(-c2ccc(F)cc2)c1=O [Example 150, 3-(4-Fluoro-phenyl)-1-isopropyl-2,4-dioxo-1,2,3,4-tetrahydro-pyrimidine-5-carboxylic acid(3-fluoro-4-{6-[(4-methyl-piperazine-1-carbonyl)-amino]-pyrazolo[1,5-a]pyridin-4-yloxy}-phenyl)-amide]		0.01 to 0.1 µM
Cn1cnc(-c2cc(Oc3ccc(Nc4ncccn4)cc3F)c3ccnn3c2)c1 [Example 152, {3-Fluoro-4-[6-(1-methyl-1H-imidazol-4-yl)-pyrazolo[1,5-a]pyridin-4-yloxy]-phenyl}-pyrimidin-2-yl-amine]		1 to 10 µM
Cn1cnc(-c2cc(Oc3ccc(NS(=O)(=O)c4ccc(F)cc4)cc3F)c3ccnn3c2)c1 [Example 153, 4-Fluoro-N-{3-fluoro-4-[6-(1-methyl-1H-imidazol-4-yl)-pyrazolo[1,5-a]pyridin-4-yloxy]-phenyl}-benzenesulfonamide]		1 to 10 µM
Cc1ccc(C(=O)Nc2ccc(Oc3cc(Br)cn4nccc34)c(F)c2)c(=O)n1-c1ccc(F)cc1 [Example 157, 1-(4-Fluoro-phenyl)-6-methyl-2-oxo-1,2-dihydro-pyridine-3-carboxylic acid [4-(6-bromo-pyrazolo[1,5-a]pyridin-4-yloxy)-3-fluoro-phenyl]-amide]		0.01 to 0.1 µM

Results, then the compound that gave them:

IC50 [1]	IC50 [2]	Compound
< 0.01 µM	< 0.01 µM	O=C(Nc1ccc(Oc2cc(-c3cccnc3)cn3nccc23)c(F)c1)c1cccn(-c2ccc(F)cc2)c1=O [Example 25, 1-(4-Fluoro-phenyl)-2-oxo-1,2-dihydro-pyridine-3-carboxylic acid 3-fluoro-4-(6-pyridin-3-yl-pyrazolo[1,5-a]pyridin-4-yloxy)-phenyl-amide]
< 0.01 µM	< 0.01 µM	O=C(Nc1ccc(Oc2cc(-c3ccc(N4CCOCC4)nc3)cn3nccc23)c(F)c1)c1cccn(-c2ccc(F)cc2)c1=O [Example 26, 1-(4-Fluoro-phenyl)-2-oxo-1,2-dihydro-pyridine-3-carboxylic acid {3-fluoro-4-[6-(6-morpholin-4-yl-pyridin-3-yl)-pyrazolo[1,5-a]pyridin-4-yloxy]-phenyl}-amide]
< 0.01 µM	< 0.01 µM	O=C(Nc1ccc(Oc2cc(-c3ccncc3)cn3nccc23)c(F)c1)c1cccn(-c2ccc(F)cc2)c1=O [Example 27, 1-(4-Fluoro-phenyl)-2-oxo-1,2-dihydro-pyridine-3-carboxylic acid [3-fluoro-4-(6-pyridin-4-yl-pyrazolo[1,5-a]pyridin-4-yloxy)-phenyl]-amide]
< 0.01 µM	< 0.01 µM	Cn1cc(-c2cc(Oc3ccc(NC(=O)c4cccn(-c5ccc(F)cc5)c4=O)cc3F)c3ccnn3c2)cn1 [Example 29, 1-(4-Fluoro-phenyl)-2-oxo-1,2-dihydro-pyridine-3-carboxylic acid {3-fluoro-4-[6-(1-methyl-1H-pyrazol-4-yl)-pyrazolo[1,5-a]pyridin-4-yloxy]-phenyl}-amide]
< 0.01 µM	< 0.01 µM	Cn1cc(-c2cc(Oc3ccc(NC(=O)c4c[nH]c(=O)n(-c5ccc(F)cc5)c4=O)cc3F)c3ccnn3c2)cn1 [Example 30, 3-(4-Fluoro-phenyl)-2,4-dioxo-1,2,3,4-tetrahydro-pyrimidine-5-carboxylic acid {3-fluoro-4-[6-(1-methyl-1H-pyrazol-4-yl)-pyrazolo[1,5-a]pyridin-4-yloxy]-phenyl}-amide]
< 0.01 µM	< 0.01 µM	CCOCCn1cc(C(=O)Nc2ccc(Oc3cc(-c4cnn(C)c4)cn4nccc34)c(F)c2)c(=O)n(-c2ccc(F)cc2)c1=O [Example 31, 1-(2-Ethoxy-ethyl)-3-(4-fluoro-phenyl)-2,4-dioxo-1,2,3,4-tetrahydro-pyrimidine-5-carboxylic acid {3-fluoro-4-[6-(1-methyl-1H-pyrazol-4-yl)-pyrazolo[1,5-a]pyridin-4-yloxy]-phenyl}-amide]
< 0.01 µM	< 0.01 µM	CCn1cc(C(=O)Nc2ccc(Oc3cc(-c4cnn(C)c4)cn4nccc34)c(F)c2)c(=O)n(-c2ccc(F)cc2)c1=O [Example 33, 1-Ethyl-3-(4-fluoro-phenyl)-2,4-dioxo-1,2,3,4-tetrahydro-pyrimidine-5-carboxylic acid {3-fluoro-4-[6-(1-methyl-1H-pyrazol-4-yl)-pyrazolo[1,5-a]pyridin-4-yloxy]-phenyl}-amide]
< 0.01 µM	< 0.01 µM	Cc1ccc(C(=O)Nc2ccc(Oc3cc(-c4cnn(C)c4)cn4nccc34)c(F)c2)c(=O)n1-c1ccc(F)cc1 [Example 34, 1-(4-Fluoro-phenyl)-6-methyl-2-oxo-1,2-dihydro-pyridine-3-carboxylic acid {3-fluoro-4-[6-(1-methyl-1H-pyrazol-4-yl)-pyrazolo[1,5-a]pyridin-4-yloxy]-phenyl}-amide]
< 0.01 µM	< 0.01 µM	Cc1c(-c2cc(Oc3ccc(NC(=O)c4cccn(-c5ccc(F)cc5)c4=O)cc3F)c3ccnn3c2)cnn1C [Example 39, 1-(4-Fluoro-phenyl)-2-oxo-1,2-dihydro-pyridine-3-carboxylic acid {4-[6-(1,5-dimethyl-1H-pyrazol-4-yl)-pyrazolo[1,5-a]pyridin-4-yloxy]-3-fluoro-phenyl}-amide]
